Assay results as given in patent US10526316B2, “Quinoxaline and pyridopyrazine derivatives as PI3Kβ inhibitors” (Janssen Pharmaceutica NV, priority 2015, dated 2020).
Read-outs that look alike come from different tables or passages of the source.

Tests used:
kinase enzymes [1] = target: T1, kinase enzymes (Homo sapiens, UniProt P48736); test: Enzyme binding assay (KINOMEscan, DiscoveRx), further kinases of Table A; settings: PIK3Cγ_h
T1 construct: purchased DiscoveRx Corporation, San Diego (contract service, KINOMEscan)
Method in brief: (§1)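 Affinity for each kinase was determined by KINOMEscan profiling.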

kinase enzymes [2] = target: T2, kinase enzymes (Homo sapiens, UniProt P42336); test: as above; settings: PIK3Cα_h
T2 construct: purchased DiscoveRx Corporation, San Diego (contract service, KINOMEscan)
Method in brief: as §1

kinase enzymes [3] = target: T3, kinase enzymes (Homo sapiens, UniProt P42345); test: as above; settings: MTOR_h
T3 construct: purchased DiscoveRx Corporation, San Diego (contract service, KINOMEscan)
Method in brief: as §1

[4] = tested on: Akt phosphorylated at Ser473 in PC-3 cells; test: Cellular assay: phosphorylation of Akt at Ser473 in PC-3 cells (MSD ELISA); format: cell-based; settings: PC-3 cells, 60 min compound incubation, MSD ELISA, read-out: IC50 pAkt_S473
Method in brief: (§2)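 After lysis of treated cells (60 min, 37° C, 0.3% DMSO), phospho-Akt levels were measured by MSD electrochemiluminescence ELISA. Potency was derived from concentration-response curves fitted over five concentrations.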

[5] = tested on: Akt phosphorylated at Thr308 in PC-3 cells; test: Cellular assay: phosphorylation of Akt at Thr308 in PC-3 cells (MSD ELISA); format: cell-based; settings: PC-3 cells, 60 min compound incubation, MSD ELISA, read-out: IC50 pAkt_Thr308
Method in brief: as §2

PI3Kβ = target: T4, PI3Kβ (Homo sapiens, UniProt P42338); test: Enzyme binding assay (KINOMEscan, DiscoveRx); settings: PIK3Cβ_h, read-out: Kd PIK3Cβ_h
T4 construct: purchased DiscoveRx Corporation, San Diego (contract service, KINOMEscan)
Method in brief: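 Values are Kd in nM, the binding constant of each inhibitor for the kinase, obtained from a KINOMEscan enzyme binding assay.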

PI3Kδ = target: T5, PI3Kδ (Homo sapiens, UniProt O00329); test: Enzyme binding assay (KINOMEscan, DiscoveRx); settings: PIK3Cδ_h
T5 construct: purchased DiscoveRx Corporation, San Diego (contract service, KINOMEscan)
T5 sequence (O00329 1-1044): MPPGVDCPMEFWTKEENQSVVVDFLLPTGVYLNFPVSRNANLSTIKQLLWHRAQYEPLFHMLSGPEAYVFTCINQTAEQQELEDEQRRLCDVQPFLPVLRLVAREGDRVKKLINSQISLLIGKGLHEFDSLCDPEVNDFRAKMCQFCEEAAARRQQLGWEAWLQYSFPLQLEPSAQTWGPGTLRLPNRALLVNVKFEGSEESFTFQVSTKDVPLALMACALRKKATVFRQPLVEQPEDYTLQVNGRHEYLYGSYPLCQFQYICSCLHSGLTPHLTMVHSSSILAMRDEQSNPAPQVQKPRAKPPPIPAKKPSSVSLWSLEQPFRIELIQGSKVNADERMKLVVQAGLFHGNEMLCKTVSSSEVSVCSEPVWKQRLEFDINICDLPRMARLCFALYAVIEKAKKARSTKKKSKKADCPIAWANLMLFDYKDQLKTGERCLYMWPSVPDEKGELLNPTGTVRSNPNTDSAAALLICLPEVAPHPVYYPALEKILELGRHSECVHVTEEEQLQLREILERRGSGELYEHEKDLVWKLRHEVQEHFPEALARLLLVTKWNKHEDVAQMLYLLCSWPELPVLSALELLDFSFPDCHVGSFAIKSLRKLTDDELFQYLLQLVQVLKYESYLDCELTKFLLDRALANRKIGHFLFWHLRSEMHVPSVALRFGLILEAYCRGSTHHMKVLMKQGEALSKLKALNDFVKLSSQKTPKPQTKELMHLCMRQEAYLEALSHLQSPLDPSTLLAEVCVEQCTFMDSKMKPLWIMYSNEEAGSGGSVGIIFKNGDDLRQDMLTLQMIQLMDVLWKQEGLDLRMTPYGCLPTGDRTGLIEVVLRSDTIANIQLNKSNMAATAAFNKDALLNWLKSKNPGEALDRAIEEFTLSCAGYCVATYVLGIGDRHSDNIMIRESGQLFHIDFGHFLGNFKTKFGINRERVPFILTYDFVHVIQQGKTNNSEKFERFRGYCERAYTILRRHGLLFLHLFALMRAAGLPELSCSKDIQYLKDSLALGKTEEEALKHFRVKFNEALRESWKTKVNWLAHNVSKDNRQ
Method in brief: as §1

T4 sequence (P42338 whole entry): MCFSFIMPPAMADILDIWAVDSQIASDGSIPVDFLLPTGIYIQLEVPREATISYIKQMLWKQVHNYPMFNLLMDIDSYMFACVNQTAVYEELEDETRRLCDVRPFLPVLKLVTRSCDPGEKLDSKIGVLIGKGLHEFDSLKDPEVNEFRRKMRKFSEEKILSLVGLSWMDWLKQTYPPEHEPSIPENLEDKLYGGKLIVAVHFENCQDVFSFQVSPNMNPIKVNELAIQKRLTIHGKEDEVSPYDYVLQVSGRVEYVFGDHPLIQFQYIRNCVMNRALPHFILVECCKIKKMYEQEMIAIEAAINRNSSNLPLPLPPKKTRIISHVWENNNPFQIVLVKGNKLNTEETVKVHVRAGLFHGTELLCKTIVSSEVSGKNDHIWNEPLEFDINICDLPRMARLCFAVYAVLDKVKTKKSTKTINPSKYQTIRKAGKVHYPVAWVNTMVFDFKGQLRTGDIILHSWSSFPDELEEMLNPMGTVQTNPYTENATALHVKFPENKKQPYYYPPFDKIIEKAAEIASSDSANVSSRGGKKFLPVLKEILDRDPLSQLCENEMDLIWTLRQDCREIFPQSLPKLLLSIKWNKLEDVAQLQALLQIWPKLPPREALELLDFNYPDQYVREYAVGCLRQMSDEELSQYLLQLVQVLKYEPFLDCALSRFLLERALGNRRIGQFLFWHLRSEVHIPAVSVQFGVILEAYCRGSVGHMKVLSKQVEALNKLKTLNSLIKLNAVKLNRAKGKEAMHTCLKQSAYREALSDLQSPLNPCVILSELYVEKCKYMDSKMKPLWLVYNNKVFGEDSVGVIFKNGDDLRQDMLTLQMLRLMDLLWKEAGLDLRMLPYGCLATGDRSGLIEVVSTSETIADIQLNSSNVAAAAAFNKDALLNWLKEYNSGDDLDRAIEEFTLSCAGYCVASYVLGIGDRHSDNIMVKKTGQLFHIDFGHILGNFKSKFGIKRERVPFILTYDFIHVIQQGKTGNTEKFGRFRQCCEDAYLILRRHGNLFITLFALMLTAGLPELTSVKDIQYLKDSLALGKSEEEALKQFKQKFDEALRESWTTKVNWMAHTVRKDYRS
T2 sequence (P42336 whole entry): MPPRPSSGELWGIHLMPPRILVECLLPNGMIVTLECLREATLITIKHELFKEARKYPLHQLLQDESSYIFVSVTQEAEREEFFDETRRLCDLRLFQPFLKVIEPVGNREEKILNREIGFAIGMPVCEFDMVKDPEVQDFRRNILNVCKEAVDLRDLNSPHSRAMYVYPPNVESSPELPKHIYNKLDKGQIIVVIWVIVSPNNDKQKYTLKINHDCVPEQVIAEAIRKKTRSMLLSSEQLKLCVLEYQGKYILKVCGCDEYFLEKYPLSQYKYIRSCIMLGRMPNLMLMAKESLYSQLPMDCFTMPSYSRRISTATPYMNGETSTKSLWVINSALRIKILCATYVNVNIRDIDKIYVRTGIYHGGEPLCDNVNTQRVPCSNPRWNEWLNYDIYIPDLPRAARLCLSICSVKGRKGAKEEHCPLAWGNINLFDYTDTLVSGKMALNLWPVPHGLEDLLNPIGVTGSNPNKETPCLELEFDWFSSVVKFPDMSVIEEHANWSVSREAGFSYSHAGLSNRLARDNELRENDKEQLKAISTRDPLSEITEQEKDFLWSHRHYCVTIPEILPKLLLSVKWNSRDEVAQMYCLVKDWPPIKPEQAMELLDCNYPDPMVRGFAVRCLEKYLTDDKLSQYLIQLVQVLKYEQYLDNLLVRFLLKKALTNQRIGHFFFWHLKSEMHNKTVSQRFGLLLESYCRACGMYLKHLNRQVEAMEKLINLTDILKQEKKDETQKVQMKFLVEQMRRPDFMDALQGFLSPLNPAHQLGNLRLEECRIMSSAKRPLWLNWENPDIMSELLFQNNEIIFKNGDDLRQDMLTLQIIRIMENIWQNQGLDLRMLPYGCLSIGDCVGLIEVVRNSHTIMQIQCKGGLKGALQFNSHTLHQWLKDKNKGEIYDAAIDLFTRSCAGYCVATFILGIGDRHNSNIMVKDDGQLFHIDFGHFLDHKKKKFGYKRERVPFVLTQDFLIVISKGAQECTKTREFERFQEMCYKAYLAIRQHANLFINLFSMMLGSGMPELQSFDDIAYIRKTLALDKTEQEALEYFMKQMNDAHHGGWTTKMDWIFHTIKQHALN
T1 sequence (P48736 whole entry): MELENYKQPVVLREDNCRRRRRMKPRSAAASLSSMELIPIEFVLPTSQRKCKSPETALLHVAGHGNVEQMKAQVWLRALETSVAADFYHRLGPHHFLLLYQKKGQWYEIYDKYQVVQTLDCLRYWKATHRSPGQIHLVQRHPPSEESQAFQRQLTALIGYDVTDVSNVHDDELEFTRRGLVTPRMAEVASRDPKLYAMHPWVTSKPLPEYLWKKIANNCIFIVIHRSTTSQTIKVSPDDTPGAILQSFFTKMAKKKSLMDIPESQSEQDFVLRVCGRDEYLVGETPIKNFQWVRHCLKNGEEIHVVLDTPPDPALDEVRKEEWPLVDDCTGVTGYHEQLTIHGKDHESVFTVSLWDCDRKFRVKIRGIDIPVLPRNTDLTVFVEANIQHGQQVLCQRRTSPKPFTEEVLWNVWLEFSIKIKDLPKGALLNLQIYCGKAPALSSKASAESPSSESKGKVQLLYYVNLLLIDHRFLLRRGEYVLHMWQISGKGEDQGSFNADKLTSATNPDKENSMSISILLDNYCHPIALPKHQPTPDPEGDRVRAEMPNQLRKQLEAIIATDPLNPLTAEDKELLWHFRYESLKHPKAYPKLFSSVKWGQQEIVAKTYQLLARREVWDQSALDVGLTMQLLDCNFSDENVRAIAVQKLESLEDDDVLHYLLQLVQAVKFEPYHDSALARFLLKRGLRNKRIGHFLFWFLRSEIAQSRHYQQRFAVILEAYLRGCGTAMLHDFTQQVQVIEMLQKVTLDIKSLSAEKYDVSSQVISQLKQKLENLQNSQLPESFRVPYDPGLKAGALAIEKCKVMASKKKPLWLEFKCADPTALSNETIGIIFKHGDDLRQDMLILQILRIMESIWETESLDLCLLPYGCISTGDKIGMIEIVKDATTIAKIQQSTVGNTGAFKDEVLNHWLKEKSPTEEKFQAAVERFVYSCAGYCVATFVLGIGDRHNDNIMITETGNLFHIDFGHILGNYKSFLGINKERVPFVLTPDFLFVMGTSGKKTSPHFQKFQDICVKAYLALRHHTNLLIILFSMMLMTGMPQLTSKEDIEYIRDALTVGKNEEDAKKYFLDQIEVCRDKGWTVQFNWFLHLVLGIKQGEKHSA

Kd (kinase enzymes [1]) [µM] | Kd (kinase enzymes [2]) [µM] | Kd (kinase enzymes [3]) [µM] | IC50 [4] [µM] | IC50 [5] [µM] | Kd (PI3Kβ) [µM] | Kd (PI3Kδ) [µM] | IC50 ([4]; Homo sapiens, PC-3, 1 h) [µM] | IC50 ([5]; Homo sapiens, PC-3, 1 h) [µM] | SMILES
0.741 | 0.437 | 8.51 | 0.03 | 0.023 | 0.001 | 0.098 | – | – | CC(Nc1cc(F)cc(F)c1)c1cc(CO)cc2ncc(N3CCOCC3)nc12 (single isomer, unassigned) [Compound 154a]
14.1 | 8.13 | > 30.2 | > 0.513 | ~0.513 | 0.166 | 3.8 | – | – | CNCCNC(=O)c1cc(C(C)Oc2ccc(F)c(F)c2)c2nc(N3CCOCC3)cnc2c1 (single isomer, unassigned) [Compound 344b]
3.24 | 1.38 | > 30.2 | 0.023 | 0.016 | 0.001 | 0.17 | – | – | CC(Nc1cc(F)c(F)c(F)c1)c1cc(C(=O)N(C)C2CCNC2)cc2ncc(N3CCOCC3)nc12 (single isomer, unassigned) [Compound 296a]
> 30.2 | 4.37 | > 30.2 | – | – | 0.059 | 1.02 | > 0.513 | > 0.513 | CN(Cc1cc(F)cc(F)c1)c1cc(C(=O)N2CCNC(C(F)(F)F)C2)cc2ncc(N3CCOCC3)nc12 (stereo not drawn) [Compound 319b]
30.2 | 17.4 | 19.1 | ~0.407 | > 0.513 | 0.417 | 6.03 | – | – | CC(C)NCCNC(=O)c1cc(C(C)Oc2cccc(F)c2)c2nc(N3CCOCC3)cnc2c1 (single isomer, unassigned) [Compound 314a]
1.48 | 1.02 | > 30.2 | 0.007 | 0.003 | 0.0005 | 0.112 | – | – | CN[C@H]1CCN(C(=O)c2cc(C(C)Nc3cc(F)c(F)c(F)c3)c3nc(N4CCOCC4)cnc3c2)C1 (single isomer, unassigned) [Compound 297b]

The next lines start with the compound.

SMILES | Kd (kinase enzymes [1]) [µM] | Kd (kinase enzymes [2]) [µM] | Kd (kinase enzymes [3]) [µM] | IC50 [4] [µM] | IC50 [5] [µM] | Kd (PI3Kβ) [µM] | Kd (PI3Kδ) [µM] | IC50 ([4]; Homo sapiens, PC-3, 1 h) [µM] | IC50 ([5]; Homo sapiens, PC-3, 1 h) [µM]
CC(Oc1cc(F)cc(F)c1)c1cc(C(=O)N(C)C)cc2ncc(N3CCOCC3)nc12 (stereo not drawn) [Compound 53] | 21.4 | 2.95 | > 30.2 | – | – | 0.003 | 0.692 | 0.214 | 0.148
Cc1c(CNc2cc(C(=O)NCCO)cc3ncc(N4CCOCC4)nc23)cccc1C(F)(F)F [Compound 231] | > 30.2 | 17 | > 10 | – | – | 0.052 | > 3.31 | ~0.457 | 0.398
CNCCNC(=O)c1cc(C(C)Oc2cc(F)cc(F)c2)c2nc(N3CCOCC3)cnc2c1 (single isomer, unassigned) [Compound 166] | 14.8 | 16.6 | 21.9 | > 0.513 | > 0.513 | 0.019 | 4.07 | – | –
CC(Nc1cc(F)cc(F)c1)c1cc(C(=O)NC[C@@H](C)O)cc2ncc(N3CCOCC3)nc12 (single isomer, unassigned) [Compound 202] | 3.32 | > 30.2 | 6.03 | > 0.513 | > 0.513 | 3.95 | > 30.2 | – | –
CC(Nc1cc(F)cc(F)c1)c1cc(CNCC(F)(F)F)cc2ncc(N3CCOCC3)nc12 (single isomer, unassigned) [Compound 163] | > 30.2 | > 30.2 | > 30.2 | > 0.513 | > 0.513 | 0.832 | 16.2 | – | –
Cc1c(F)cccc1CN(C)c1cc(C(=O)N(C)CCNC(C)C)cc2ncc(N3CCOCC3)nc12 [Compound 386] | 14.8 | 3.24 | 24.5 | – | – | 0.015 | 0.692 | > 0.513 | > 0.513
CC(Nc1cc(F)cc(F)c1)c1cc(CN2CCS(=O)(=O)CC2)cc2ncc(N3CCOCC3)nc12 (single isomer, unassigned) [Compound 157] | > 30.2 | 13.2 | > 30.2 | > 0.513 | 0.417 | 0.102 | 20 | – | –
COC(=O)c1cc(C(C)Nc2cc(F)cc(F)c2)c2nc(N3CCOCC3)cnc2c1 (stereo not drawn) [Compound 235] | 24.5 | > 32 | > 32 | – | – | 0.05 | 7.59 | 0.214 | 0.079
COC1CN(Cc2cc(C(C)Nc3cc(F)cc(F)c3)c3nc(N4CCOCC4)cnc3c2)CC1OC (single isomer, unassigned) [Compound 205] | > 30.2 | > 30.2 | > 30.2 | – | > 0.513 | 0.204 | 17.4 | > 0.513 | –
CC(Nc1cc(F)cc(F)c1)c1cc(C(=O)N2CCOCC2)cc2ncc(N3CCOCC3)nc12 (stereo not drawn) [Compound 7] | 10 | 0.513 | > 30.2 | 0.042 | 0.021 | 0.002 | 0.245 | – | –
CC(Nc1ccc(F)c(F)c1)c1cc(C(=O)N2CC[C@@H](O)C2)cc2ncc(N3CCOCC3)nc12 (stereo partly drawn) [Compound 300] | 17 | 2.69 | > 30.2 | – | – | 0.004 | 0.513 | 0.071 | 0.085
CNCCNC(=O)c1cc([C@@H](C)Oc2cccc(F)c2)c2nc(N3CCOCC3)cnc2c1 [Compound 122] | 5.62 | 2.88 | 25.7 | 0.04 | 0.026 | 0.0003 | 0.151 | – | –
CC(Nc1cc(F)cc(F)c1)c1cc(C(=O)N(C)C)cc2ncc(C3=CCOCC3)nc12 (single isomer, unassigned) [Compound 159] | > 30.2 | > 30.2 | > 30.2 | > 0.513 | > 0.513 | 0.11 | 23.4 | – | –
CC(Nc1cc(F)cc(F)c1)c1cc(C(=O)O)cc2ncc(N3CCOCC3)nc12 (stereo not drawn) [Compound 236] | 0.813 | 0.112 | 1.32 | – | – | 0.002 | 0.158 | > 0.513 | > 0.513
CCN1CCN(C(=O)c2cc(C(C)Oc3cccc(F)c3)c3nc(N4CCOCC4)cnc3c2)CC1 (single isomer, unassigned) [Compound 92] | > 30.2 | 16.2 | > 30.2 | > 0.513 | > 0.513 | 1.02 | 16.6 | – | –
CC(Oc1cccc(F)c1F)c1cc(C(=O)N(C)C)cc2ncc(N3CCOCC3)nc12 (single isomer, unassigned) [Compound 73] | 19.5 | 2.04 | > 30.2 | – | – | 0.009 | 0.282 | > 0.513 | 0.331
CN1CCN(C(=O)c2cc(C3CCCN3c3cc(F)cc(F)c3)c3nc(N4CCOCC4)cnc3c2)CC1 (single isomer, unassigned) [Compound 58] | 18.6 | 2 | > 30.2 | > 0.513 | 0.295 | 0.009 | 0.912 | – | –
CNCCNC(=O)c1cc(C(C)Nc2cccc(F)c2)c2nc(N3CCOCC3)cnc2c1 (single isomer, unassigned) [Compound 138] | 2.15 | 0.398 | 30.9 | 0.003 | 0.002 | 0.0001 | 0.056 | – | –
